Experimental data taken from patent publication US6900190B2, “Active substance combinations having insecticidal and acaricidal properties” (priority 2000, dated 2005).

Tested on: common spider mite (Tetranychus urticae)
Assay: Tetranychus test (OP-resistant/spray treatment)
Type: in vivo
Conditions: single active compound, 0.32 ppm, spray treatment of infested bean plants (Phaseolus vulgaris), OP-resistant mites
Description: The expected action for a given combination of two active compounds can be calculated as follows, using the formula of S. R. Colby, Weeds 15 (1967), 20-22: […]
If • X is the efficacy, expressed as % of the untreated control, when employing active compound A at an application rate of m g/ha or in a concentration of m ppm, • Y is the efficacy, expressed as % of the untreated control, when employing active compound B at an application rate of n g/ha or in a concentration of n ppm and • E is the efficacy, expressed as % of the untreated control, when employing active compounds A and B at application rates of m and n g/ha or in a concentration of m and n ppm, then [formula]
If the actual insecticidal kill rate exceeds the calculated value, the action of the combination is superadditive, i.e. a synergistic effect is present. In this case, the actually observed insecticidal kill rate must exceed the value calculated using the above formula for the expected insecticidal kill rate (E).
Tetranychus test (OP-resistant/spray treatment) […]
After the desired period of time, the effect in % is determined. […] The kill rates determined are calculated using Colby's formula.

Compound	Kill rate in % after 14 d [%]
Cc1cc(C)c(C2=C(OC(=O)CC(C)(C)C)C3(CCCC3)OC2=O)c(C)c1 [Ex. (I-b-1)]	0
COP(N)(=O)SC (centres unmarked) [Metamidophos, methamidophos]	0
